Biological target: T1, TRABID (Homo sapiens, UniProt Q9UGI0)
T1 construct: gene ZRANB1; full length TRABID
T1 sequence (Q9UGI0 1-708): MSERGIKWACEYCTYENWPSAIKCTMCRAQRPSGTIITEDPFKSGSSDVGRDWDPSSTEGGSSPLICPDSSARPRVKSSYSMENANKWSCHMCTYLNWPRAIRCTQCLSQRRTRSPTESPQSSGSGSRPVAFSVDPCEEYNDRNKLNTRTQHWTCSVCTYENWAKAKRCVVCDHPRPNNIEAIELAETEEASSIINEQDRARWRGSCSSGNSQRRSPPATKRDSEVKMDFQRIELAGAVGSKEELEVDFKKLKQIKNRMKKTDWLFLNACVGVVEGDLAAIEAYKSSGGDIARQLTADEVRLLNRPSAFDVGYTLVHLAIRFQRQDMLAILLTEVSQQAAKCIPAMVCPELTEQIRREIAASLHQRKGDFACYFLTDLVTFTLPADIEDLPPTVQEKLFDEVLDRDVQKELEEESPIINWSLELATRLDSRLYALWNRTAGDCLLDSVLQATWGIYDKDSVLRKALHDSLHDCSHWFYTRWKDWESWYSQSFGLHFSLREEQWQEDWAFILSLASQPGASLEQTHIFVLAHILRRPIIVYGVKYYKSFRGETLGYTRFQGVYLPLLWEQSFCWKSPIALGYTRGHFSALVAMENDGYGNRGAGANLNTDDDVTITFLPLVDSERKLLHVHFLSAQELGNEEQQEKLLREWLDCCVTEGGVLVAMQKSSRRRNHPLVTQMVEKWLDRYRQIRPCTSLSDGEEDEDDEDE
Assay: Hexa-K63 ubiquitin cleavage assay, Western blot quantification
Assay type: biochemical

Row | IC50 | SMILES
1 | 7.17 µM | Oc1cc(Br)c(O)cc1Br [compound 133363, NSC133363]
2 | 7.54 µM | Cc1cc(O)c(Cl)cc1O [compound 29034, NSC29034]
